Measured values published in patent US8853387B2, “Mimetics of sulfated oligosaccharides” (Istituto di Ricerche Chimiche e Biochimiche “G. Ronzoni”, priority 2008, dated 2014).

Target: T1, recombinant human heparanase (Homo sapiens, UniProt Q9Y251)
T1 sequence (Q9Y251 158-543 limits assumed): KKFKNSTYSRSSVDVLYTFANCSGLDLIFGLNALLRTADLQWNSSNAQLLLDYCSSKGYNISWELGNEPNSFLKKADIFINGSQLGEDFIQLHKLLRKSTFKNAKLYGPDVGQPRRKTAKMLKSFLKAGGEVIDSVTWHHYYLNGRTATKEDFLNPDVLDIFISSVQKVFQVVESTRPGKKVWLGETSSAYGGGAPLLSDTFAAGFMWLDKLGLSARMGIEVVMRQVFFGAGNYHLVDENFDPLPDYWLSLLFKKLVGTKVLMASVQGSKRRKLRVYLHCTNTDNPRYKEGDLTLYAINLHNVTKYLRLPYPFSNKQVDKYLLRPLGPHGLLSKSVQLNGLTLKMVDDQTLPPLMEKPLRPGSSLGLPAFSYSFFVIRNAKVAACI
T1 sequence (Q9Y251 36-109 limits assumed): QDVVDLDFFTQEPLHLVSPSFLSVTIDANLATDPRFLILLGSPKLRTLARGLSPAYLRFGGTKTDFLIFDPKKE
Test: Heparanase activity on sulfate labeled ECM substrate
Format: biochemical
Conditions: compound at 5 μg/ml; recombinant human heparanase 10 ng/ml, 37° C., pH 6.0, 4 h; control (enzyme alone) = 100
Experimental: Sulfated compound was tested at two concentrations (1 & 5 μg/ml) for its ability to inhibit the heparanase enzyme, using metabolically sulfate labeled ECM as a substrate. Briefly, sulfate labeled ECM coating the surface of 35-mm tissue culture dishes, is incubated (37° C., pH 6.0, 4 h, 1 ml final volume) with recombinant human heparanase (10 ng/ml) in the absence and presence of increasing amounts of each compound. The reaction mixture contains: 50 mM NaCl, 1 mM DTT, 1 mM CaCl2, and 10 mM buffer Phosphate-Citrate, pH 6.0. To evaluate the occurrence of proteoglycan degradation, the incubation medium is collected and applied for gel filtration on Sepharose 6B columns (0.9×30 cm). Fractions (0.2 ml) are eluted with PBS at a flow rate of 5 ml/h and counted for radioactivity. The excluded volume (VO) is marked by blue dextran and the total included volume (Vt) by phenol red. Degradation fragments of HS side chains are eluted at 0.5<Kav<0.8 (peak II). Results are best presented as the actual gel filtration profiles. Numerical values derived from these graphs are presented in FIG. 1 as heparanase activity (% of control), where: Heparanase activity=Kav×total cpm in peak II (fractions 15-35). Kav=(Ve−Vo/Vt−Vo). • Control Kay=Kay obtained in the presence of enzyme alone (without inhibitors). Effect of Sulfated Malto-Oligosaccharides Mimics (MOS) on Hpa Activity—Tables 1 and 2.

Maltohexaose sulfate [MHS]
Heparanase activity (5 μg/ml): 27 % of control
